Assay results published in patent US20250144176A1, “COMPOSITIONS COMPRISING OSTEOPONTIN (OPN)” (SOCIETE DES PRODUITS NESTLE S.A., priority 2022, published 2025).

Legend:
lipopolysaccharide (LPS) = conditions: early life dietary supplementation; cited from earlier work
immune cell profile = conditions: infants fed formula supplemented with bovine OPN; cited from earlier work
[1] = tested on: pneumonia virus of mice (PVM); assay: Neonatal mouse model of PVM-induced bronchiolitis: lung immune cells counted by multi-colour flow cytometry; assay type: in vivo, mice (C57BL/6 pups)
Source text: (§1) C57BL/6 pups were either nursed by OPN-sufficient or OPN-deficient dams.
(§2) At postnatal day 5 (PND5), mice receiving OPN-deficient mother's milk were fed with either a whey protein concentrate (WPC) enriched in OPN (OPNenriched group) or a control WPC (OPN− group) once daily for 15 consecutive days.
(§3) In a similar way, at PND5, mice receiving OPN-sufficient mother's milk were fed with control WPC (OPN+ group) once daily for 15 consecutive days.
(§4) At PND10, all animals were infected intra-nasally (i.n.) with 10 PFU of PVM (J3666) to induce bronchiolitis.
(§5) The used OPN-enriched WPC contained 79 g protein per 100 g, and 729 mg OPN per 100 g. The pups in the OPNenriched group were fed the OPN-enriched WPC as a supplement to deliver 12 μg OPN per average gram of bodyweight per day.
To investigate whether OPN intervention has an impact on immune cell composition, the number of pDCs, CD4+ and CD8+ T cells and neutrophils in lung tissues 5 and/or 9 days post infection were enumerated using multi-colour flow cytometry. Isolated single-cell suspensions from the lungs were washed with PBS/2% FCS, and red blood cells were lysed using Gey's buffer. Cells were washed again, followed by incubation with anti-FcγRIII/II for 15 min at 4° C. Cells were stained using fluorescently labeled antibodies described in the gating strategies herein, with DAPI, 7-AAD, or Zombie NIR used to exclude dead cells.

[2] = tested on: pneumonia virus of mice (PVM); assay: Neonatal mouse model of PVM-induced bronchiolitis: airway smooth muscle remodeling by α-smooth muscle actin immunohistochemistry; assay type: in vivo, mice (C57BL/6 pups); conditions: 9 dpi; OPNenriched group, remodeling dysregulated in OPN− group; FIG. 7
Source text: as §1, §2, §3, §4, §5

[3] = tested on: pneumonia virus of mice (PVM); assay: Neonatal mouse model of PVM-induced bronchiolitis: viral load (PVM-positive airway epithelial cells) and airway epithelial sloughing; assay type: in vivo, mice (C57BL/6 pups)
Source text: as §1, §2, §3, §4, §5
To assess whether OPN intervention has an impact on pathogen expansion, viral load in PVM-infected mice was assessed as the percentage of PVM-positive airway epithelial cells (AEC) stained with an antibody against a specific PVM-glycoprotein. […] AEC detachment is a key feature of viral bronchiolitis and known to be associated with disease severity and viral load. Sloughing of the airway epithelium was quantified by measuring the length of sloughed airway epithelium and expressing this as a percentage of the basement membrane length of a single airway.

Substance | inflammation resulting from LPS administration (lipopolysaccharide (LPS)) | immune cell profile of infants (immune cell profile) | number of CD4+ cells in lung tissues ([1]; 5 dpi (peak of viral infection), OPNenriched group vs OPN− group, FIG. 4a) | CD4+ T cell accumulation in the lungs ([1]; 9 dpi (peak of immunopathology), OPNenriched group vs OPN− group, FIG. 4b) | neutrophil infiltration to the airways (granulocytic inflammation) ([1]; 9 dpi, FIG. 6) | number of pDCs in the lung ([1]; OPNenriched group vs OPN− group, FIG. 3) | pathological airway smooth muscle remodeling (ASM area) [2] | virus infected (PVM-positive) airway epithelial cells (AEC), percentage ([3]; 5 dpi, OPNenriched group vs OPN− group, 12 μg OPN per gram bodyweight per day, once daily for 15 days from PND5, FIG. 2a) | sloughing of the airway epithelium (percentage of basement membrane length) ([3]; 9 dpi, OPNenriched group vs OPN+ group, sloughing significantly elevated in OPN− group, FIG. 2b)
bovine OPN: Bovine milk osteopontin, 262 residues, used as dietary supplement in cited studies | reduced inflammation | more similar to breastfed infants | – | – | – | – | – | – | –
osteopontin [OPN] | – | – | significantly higher number | significant decline | reduced granulocytic inflammation | increased number | attenuated pathological airway smooth muscle remodeling | significant decrease | close to the OPN+ group
